System: Sperms
Assay: Toxicity screening: cell viability by MTS assay
Assay type: cell-based, mice
Settings: for Average absorbance of cell-reduced MTS at 490 nm: average of trials 1-3; for Corrected average absorbance of cell-reduced MTS at 490 nm: culture media background subtracted
Experimental: Male BALB/c mice (12-16 week old) were euthanized by CO2-inhalation. The cauda epididymes was clipped and the upper portions of the vas deferens freed from surrounding tissue. Three-four cuts were made using scissors and forceps across the epididymes and several cuts along the length of the vas deferens. Sperm were allowed to swim out of the tissue. The dish was placed in a 5% CO2 incubator set at 37° C. for 10-15 minutes. The solution of sperm was diluted (50 μl sperm+450 μl complete medium) in Whittens/HCO3/BSA. Sperm was removed from the very top or sides of sperm drop to obtain the sperm with highest motility. The dish was then returned to the 5% CO2 incubator set at 37° C. to allow the sperm to capacitate for 1-3 hrs prior to use.
In addition, cell viability with n-propyl bromide was measured by MTS assay (Promega, Madison, Wis.). MTS [3-(4,5-dimethylthiazol-2-yl)-5-(3-carboxymethoxyphenyl)-2-(4-sulfophenyl)-2H-tetrazolium, inner salt] was utilized according to the manufacturer's instructions. The culture growth medium consisted of Whittens-HEPES complete media, (pH 7.2-7.4) prepared and supplemented with 30 mM NaHCO3 and 10 mg/mL BSA (Bovine Serum Albumin, Sigma A0281, fatty acid free). 250 mL of Whittens-Hepes complete media includes 1461 mg of NaCl, 87.6 mg of KCl, 40.8 mg of KH2PO4, 36.1 mg of MgSO4, 247.8 mg of glucose (dextrose), 22.01 mg of pyruvic acid, 130.92 mg of lactic acid (hemi-Ca), and 1191.5 mg of HEPES. After treatments of the sperms, 30 μL of MTS solution was added to each well and pipetted up and down for ten times to ensure properly mixing and incubation was prolonged for 2 h at 37° C., 5% CO2.
Absorbance observations for trials 1-3 and calculated average are expressed as optical density. The absorbance of cell-reduced MTS was read at 490 nm on a spectrophotometer Spectra Max Plus 384, and optical density for absorbance readings is provided in Table II. Absorbance is directly proportional to the number of living cells in culture. Thus, a reduction in absorbance normalized to a control indicates toxicity to a cell. Background absorbance was measured for the culture media only in three trials. An average absorbance was calculated from the three trials. The average optical density for the three trials for the culture media (background) was then subtracted from the average optical density of the various concentration assays for n-propyl bromide (expressed in terms of ppm of n-propyl bromide). Three control trials using only phosphate buffered saline were also measured. The corrected, average optical density of each of the experimental assays was then compared to the corrected, average optical density of the control (PBS only) assays. The comparison is expressed as the percentage of MTS reduction relative to the normalized absorbance of control samples.

`CCCBr` [n-propyl bromide, 1-bromopropane] was tested, and the “Absorbance of cell-reduced MTS at 490 nm, Trial 2” value (5 ppm) was 0.3 optical density, the “Absorbance of cell-reduced MTS at 490 nm, Trial 3” value (5 ppm) was 0.4 optical density and the “Average absorbance of cell-reduced MTS at 490 nm” value (5 ppm) was 0.3 optical density. The “Corrected average absorbance of cell-reduced MTS at 490 nm” value (5 ppm) was 0.1 optical density, the “% of control (MTS reduction relative to PBS only control)” value (12.5 ppm) was 100% and the “Absorbance of cell-reduced MTS at 490 nm, Trial 1” value (12.5 ppm) was 0.4 optical density. For the same compound, the “Absorbance of cell-reduced MTS at 490 nm, Trial 2” value (12.5 ppm) was 0.4 optical density, the “Absorbance of cell-reduced MTS at 490 nm, Trial 3” value (12.5 ppm) was 0.1 optical density and the “Average absorbance of cell-reduced MTS at 490 nm” value (12.5 ppm) was 0.3 optical density. For the same compound, the “Corrected average absorbance of cell-reduced MTS at 490 nm” value (12.5 ppm) was 0.1 optical density, the “% of control (MTS reduction relative to PBS only control)” value (25 ppm) was 100% and the “Absorbance of cell-reduced MTS at 490 nm, Trial 1” value (25 ppm) was 0.3 optical density. The “Absorbance of cell-reduced MTS at 490 nm, Trial 2” value (25 ppm) was 0.4 optical density, the “Absorbance of cell-reduced MTS at 490 nm, Trial 3” value (25 ppm) was 0.2 optical density and the “Average absorbance of cell-reduced MTS at 490 nm” value (25 ppm) was 0.3 optical density. For the same compound, the “Corrected average absorbance of cell-reduced MTS at 490 nm” value (25 ppm) was 0.1 optical density, the “% of control (MTS reduction relative to PBS only control)” value (50 ppm) was 100% and the “Absorbance of cell-reduced MTS at 490 nm, Trial 1” value (50 ppm) was 0.2 optical density. For the same compound, the “Absorbance of cell-reduced MTS at 490 nm, Trial 2” value (50 ppm) was 0.5 optical density, the “Absorbance of cell-reduced MTS at 490 nm, Trial 3” value (50 ppm) was 0.1 optical density and the “Average absorbance of cell-reduced MTS at 490 nm” value (50 ppm) was 0.3 optical density. For the same compound, the “Corrected average absorbance of cell-reduced MTS at 490 nm” value (50 ppm) was 0.1 optical density, the “% of control (MTS reduction relative to PBS only control)” value (100 ppm) was 400% and the “Absorbance of cell-reduced MTS at 490 nm, Trial 1” value (100 ppm) was 0.4 optical density. For the same compound, the “Absorbance of cell-reduced MTS at 490 nm, Trial 2” value (100 ppm) was 0.6 optical density, the “Absorbance of cell-reduced MTS at 490 nm, Trial 3” value (100 ppm) was 0.7 optical density and the “Average absorbance of cell-reduced MTS at 490 nm” value (100 ppm) was 0.6 optical density. For the same compound, the “Corrected average absorbance of cell-reduced MTS at 490 nm” value (100 ppm) was 0.4 optical density, the “% of control (MTS reduction relative to PBS only control)” value (200 ppm) was 600% and the “Absorbance of cell-reduced MTS at 490 nm, Trial 1” value (200 ppm) was 0.8 optical density. For the same compound, the “Absorbance of cell-reduced MTS at 490 nm, Trial 2” value (200 ppm) was 0.9 optical density, the “Absorbance of cell-reduced MTS at 490 nm, Trial 3” value (200 ppm) was 0.7 optical density and the “Average absorbance of cell-reduced MTS at 490 nm” value (200 ppm) was 0.8 optical density. The “Corrected average absorbance of cell-reduced MTS at 490 nm” value (200 ppm) was 0.6 optical density, the “% of control (MTS reduction relative to PBS only control)” value (600 ppm) was 900% and the “Absorbance of cell-reduced MTS at 490 nm, Trial 1” value (600 ppm) was 1.2 optical density. The “Absorbance of cell-reduced MTS at 490 nm, Trial 2” value (600 ppm) was 1.1 optical density, the “Absorbance of cell-reduced MTS at 490 nm, Trial 3” value (600 ppm) was 0.9 optical density and the “Average absorbance of cell-reduced MTS at 490 nm” value (600 ppm) was 1.1 optical density. For the same compound, the “Corrected average absorbance of cell-reduced MTS at 490 nm” value (600 ppm) was 0.9 optical density and the “cell toxicity (MTS assay, Table II)” value (at concentrations of 50 ppm or less) was “does not result in significant cell toxicity”.

— patent US20140329912A1, “CONTRACEPTIVE COMPOSITIONS AND METHODS OF CONTRACEPTION” (INTEGRITY PHARMACEUTICALS, LLC, priority 2011, published 2014)
